Laboratory results published in PubChem BioAssay AID608 (Sanford-Burnham Center for Chemical Genomics, 2007).
Active and inactive are the calls of the source. No rule for the calls is given here.

These compounds were tested against Peptidyl-prolyl cis-trans isomerase FKBP1A (Homo sapiens) (UniProt P62942) (assay: small-molecule binding to FKBP12 – biophysical, NMR detection (AID 608)). Conditions: purified FKBP12.
Sequence of Peptidyl-prolyl cis-trans isomerase FKBP1A (Homo sapiens) (P62942 whole entry, looked up): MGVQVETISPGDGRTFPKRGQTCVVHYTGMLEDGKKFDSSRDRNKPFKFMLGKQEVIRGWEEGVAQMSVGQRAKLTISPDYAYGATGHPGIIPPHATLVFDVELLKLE
With Cc1cc(C)n(-c2ccc(Cl)nn2)n1 the Kd was > 4 mM (inactive).
For CC(=O)NC(=S)Nc1ccccc1C(N)=O, the Kd was > 4 mM (inactive).
CC(C)C(C)/C=C/C(C)[C@H]1CCC2C3=CCC4CC(=O)CC[C@]4(C)C3CC[C@@]21C (stereo partly drawn) was tested, and the Kd was > 4 mM (inactive).
For CCC(=O)Nc1ccc(-c2nn3c(C)nnc3s2)cc1, the Kd was > 4 mM (inactive).
For Cc1cccc(NC(=O)c2ccccc2C(=O)O)c1, the Kd was > 4 mM (inactive).
With N[C@@H](Cc1ccc(O)c(O)c1)C(=O)O the Kd was > 4 mM (inactive).
With O=C(Nn1cnnc1)c1cc2c(s1)CCCCC2 the Kd was > 4 mM (inactive).
CC(=O)c1c(O)cc(O)cc1O was tested, and the Kd was > 4 mM (inactive).
For O=C(O)C12CC3CC(CC(O)(C3)C1)C2, the Kd was > 4 mM (inactive).
For Cc1nc(-c2ccccc2)sc1CN, the Kd was > 4 mM (inactive).
With O=C(O)c1cn(-c2ccccc2)nc1-c1ccncc1 the Kd was > 4 mM (inactive).
In the case of Oc1cccc(N2CCOCC2)c1, the Kd is reported as > 4 mM (inactive).
For CN(C)S(=O)(=O)Nc1ccc(Br)cc1F, the Kd was > 4 mM (inactive).
Cc1cc(N2CCN(C)CC2)ncn1 was tested, and the Kd was > 4 mM (inactive).
In the case of CC1(C)Cc2c(c(-c3ccco3)[nH]c(=O)c2C#N)CO1, the Kd is reported as > 4 mM (inactive).
In the case of COc1ccc(-c2nnsc2N)cc1, the Kd is reported as > 4 mM (inactive).
In the case of Cc1nc2nc(Cc3ccccc3)[nH]n2c(=O)c1Cl, the Kd is reported as > 4 mM (inactive).
O=C1CSC(=Nc2ccccc2[N+](=O)[O-])N1 was tested, and the Kd was > 4 mM (inactive).
OCc1ccc2c(c1)OCCO2 was tested, and the Kd was > 4 mM (inactive).
With COC(=O)Cn1c2ccccc2c2nc(C)sc21 the Kd was > 4 mM (inactive).
CNC(=O)Nc1cccc(C(F)(F)F)c1 was tested, and the Kd was > 4 mM (inactive).
In the case of Cc1ccc(O)c(NC(=O)c2ccco2)c1, the Kd is reported as > 4 mM (inactive).
In the case of CCOC(=O)c1c(SC)nc(=O)[nH]c1C, the Kd is reported as > 4 mM (inactive).
O=S1(=O)CCC(NC(=S)N2CCCCC2)C1 (stereo not drawn) was tested, and the Kd was > 4 mM (inactive).
For COc1c2occc2cc2ccc(=O)oc12, the Kd was > 4 mM (inactive).
With COc1ccc(-c2c(C)n([O-])c(C)c(C)[n+]2=O)cc1 the Kd was > 4 mM (inactive).
With COc1ccc([C@@H]2CC(=O)c3c(O)cc(O)cc3O2)cc1O the Kd was > 4 mM (inactive).
In the case of O=C1C2CC=C(Cl)CC2C(=O)N1c1ccccc1O (stereo not drawn), the Kd is reported as > 4 mM (inactive).
In the case of Cc1ccc2cc(C(=O)O)ccc2n1, the Kd is reported as > 4 mM (inactive).
In the case of Cc1ccc(C)c(C(=O)NCc2ccncc2)c1, the Kd is reported as > 4 mM (inactive).
For O=C(O)C1NCCc2ccccc21 (stereo not drawn), the Kd was > 4 mM (inactive).
For Cc1occc1C(=O)NCc1ccccc1F, the Kd was > 4 mM (inactive).
For Cc1occc(=O)c1O, the Kd was > 4 mM (inactive).
CC(=O)Nc1ccc(CN2CCOCC2)cc1 was tested, and the Kd was > 4 mM (inactive).
For O=C(Nc1ccon1)c1ccc2c(c1)OCO2, the Kd was > 4 mM (inactive).
With CCOc1ccc2nc(NS(C)(=O)=O)sc2c1 the Kd was > 4 mM (inactive).
With NC1CN2CCC1CC2 (stereo not drawn) the Kd was > 4 mM (inactive).
In the case of CC(O)c1ccc(C(C)O)cc1 (stereo not drawn), the Kd is reported as > 4 mM (inactive).
CC(=O)C1=C(O)C(=O)NC1c1ccccc1 (stereo not drawn) was tested, and the Kd was > 4 mM (inactive).
O=C1COc2cc(O)ccc21 was tested, and the Kd was > 4 mM (inactive).
CS(C)=C1C(=O)NC(=O)N(Cc2ccc(F)cc2)C1=O was tested, and the Kd was > 4 mM (inactive).
NCCCCN was tested, and the Kd was > 4 mM (inactive).
In the case of CN(C)C(=S)Nc1ccccc1N1CCOCC1, the Kd is reported as > 4 mM (inactive).
Cc1cc(=O)n2[nH]cnc2n1 was tested, and the Kd was > 4 mM (inactive).
For CC1(NC(=O)NCc2ccccc2)CCS(=O)(=O)C1 (stereo not drawn), the Kd was > 4 mM (inactive).
NCc1oc(-c2ccccc2)cc1C(=O)O was tested, and the Kd was > 4 mM (inactive).
For OC[C@@H]1CCCN2CCCC[C@H]12, the Kd was > 4 mM (inactive).
For COc1ccc(N2C(=O)CCC2=O)c(OC)c1, the Kd was > 4 mM (inactive).
For CCC(C)C(=O)O[C@H]1[C@H](O)C2C(CN3CC(C)CCC3[C@@]2(C)O)C2C[C@]34O[C@]5(O)C(OC(=O)C(C)(O)CC)CC[C@@]3(C)C5C(OC(C)=O)[C@@H](OC(C)=O)C4[C@@]21O (stereo partly drawn), the Kd was > 4 mM (inactive).
NC(=O)c1ccc(Cl)c(N2C(=O)CCC2=O)c1 was tested, and the Kd was > 4 mM (inactive).
For O=S(=O)(Cc1ccccc1Cl)Nc1ccccn1, the Kd was > 4 mM (inactive).
O=C(NCc1cccc(Cl)c1)c1cccnc1 was tested, and the Kd was > 4 mM (inactive).
With COC(=O)c1ccc2snnc2c1 the Kd was > 4 mM (inactive).
For O=c1[nH]c(O)c(C=NCc2cccs2)c(=O)[nH]1, the Kd was > 4 mM (inactive).
In the case of O=c1[nH]c2sc3c(c2c2nncn12)CCCC3, the Kd is reported as > 4 mM (inactive).
With O=C(O)Cn1cnc2ccccc2c1=O the Kd was > 4 mM (inactive).
CN(C)C(=O)Nc1ccc2c(c1)nnn2C was tested, and the Kd was > 4 mM (inactive).
For c1cncc(Nc2nc(-c3cccnc3)cs2)c1, the Kd was > 4 mM (inactive).
CN(C)c1oc(-c2ccccc2Cl)nc1C#N was tested, and the Kd was > 4 mM (inactive).
With Cc1ccc(CN2CCN(C(=O)C3CCC3)CC2)cc1 the Kd was > 4 mM (inactive).
For CC(=O)OCC(=O)[C@@]1(O)CCC2C3CC[C@@H]4C[C@H](O)CC[C@]4(C)C3C(=O)C[C@@]21C (stereo partly drawn), the Kd was > 4 mM (inactive).
CCOC(=O)c1cc(C)[nH]n1 was tested, and the Kd was > 4 mM (inactive).
In the case of Cc1occc1C(=O)NCc1ccccn1, the Kd is reported as > 4 mM (inactive).
With O=S(=O)(N1CCCCC1)n1c(Cc2ccccc2)nc2ccccc21 the Kd was > 4 mM (inactive).
With Cc1[nH]c2ccccc2c1Cc1n[nH]c(=S)n1C the Kd was > 4 mM (inactive).
In the case of Cc1ccc(CN2CCNC(=O)C2CC(=O)O)o1 (stereo not drawn), the Kd is reported as > 4 mM (inactive).
In the case of NC(=O)c1ccccc1N=Cc1ccco1, the Kd is reported as > 4 mM (inactive).
With Cc1cc(N)cc(C)c1OCC(=O)N1CCOCC1 the Kd was > 4 mM (inactive).
O=C(c1sc2cc(F)ccc2c1Cl)N1CCOCC1 was tested, and the Kd was “inactive”.
Cc1sc2nc(NCCO)[nH]c(=O)c2c1C was tested, and the Kd was > 4 mM (inactive).
With COc1cc(O)c(C(C)=O)c(OC)c1 the Kd was > 4 mM (inactive).
O=c1c(-c2ccccc2)coc2cc(O)cc(O)c12 was tested, and the Kd was > 4 mM (inactive).
CC1CN(C(=O)c2sc3cccc(F)c3c2Cl)CC(C)O1 (stereo not drawn) was tested, and the Kd was > 13.6 mM (inactive).
Cc1cc(C(=O)Nc2sc3c(c2C#N)CCC3)no1 was tested, and the Kd was > 4 mM (inactive).
For O=C(c1ccco1)N1CCN(c2ccc(Cl)cc2)CC1, the Kd was > 4 mM (inactive).
With CCc1ccccc1OCC(=O)N1CCOCC1 the Kd was > 4 mM (inactive).
With O=C(c1cc(Cl)cc(Cl)c1)N1CCOCC1 the Kd was > 4 mM (inactive).
In the case of CN(C)C(=O)c1ccc(-c2n[nH]c(=O)c3ccccc23)cc1, the Kd is reported as > 4 mM (inactive).
With O=C(CC1Nc2ccccc2NC1=O)Nc1ccc(O)cc1 (stereo not drawn) the Kd was > 4 mM (inactive).
For Nc1c(F)c(F)nc(F)c1F, the Kd was > 4 mM (inactive).
In the case of Nc1cccc(NC(=O)c2ccco2)c1, the Kd is reported as > 4 mM (inactive).
With COc1cc(C(=O)NCC2CCCO2)cc(OC)c1OC (stereo not drawn) the Kd was > 4 mM (inactive).
Cc1nc(-c2ccccc2)ncc1CO was tested, and the Kd was > 4 mM (inactive).
COC(=O)c1ccc2nc[nH]c2c1 was tested, and the Kd was > 4 mM (inactive).
CC(=O)Nc1ccc(-c2ccc3nncn3n2)cc1 was tested, and the Kd was > 4 mM (inactive).
For CN1CCN(C(=S)NC(=O)c2ccn(C)n2)CC1, the Kd was > 4 mM (inactive).
For CN1CCC(NC(=O)c2cccnc2)CC1, the Kd was > 4 mM (inactive).
In the case of Fc1cc2nccnc2cc1N1CCSCC1, the Kd is reported as > 4 mM (inactive).
For CCN(CC)c1nc2n(c(=O)n1)CCO2, the Kd was > 4 mM (inactive).
With COc1ccccc1NC(N)=S the Kd was > 4 mM (inactive).
With O=C(CNC(=O)c1cccs1)NC1=NCCS1 the Kd was > 4 mM (inactive).
In the case of Cc1ccccc1NC(=O)c1ccccc1, the Kd is reported as > 4 mM (inactive).
With CC(C)=CCOc1cc2oc(=O)ccc2cc1O the Kd was > 4 mM (inactive).
With NC(=O)CN1C(=O)c2cccc3cccc1c23 the Kd was > 4 mM (inactive).
O=c1c(-c2cccs2)[n+]([O-])c2ccccc2n1O was tested, and the Kd was > 4 mM (inactive).
With NC(=O)Cn1nc2c3c(cccc3c1=O)-c1ccccc1-2 the Kd was > 4 mM (inactive).
For CC(C)c1c(O)ccc2c1CCC1[C@@](C)(CO)CCC[C@]21C (stereo partly drawn), the Kd was > 4 mM (inactive).
For CS(=O)(=O)N1CCN(C(=O)c2ccccc2F)CC1, the Kd was > 4 mM (inactive).
C=C1C2CC[C@@]3(C)[C@H](c4ccoc4)OC(=O)C[C@]13O[C@H]1CC(=O)C(C)(C)[C@H](C(OC(C)=O)C(=O)OC)[C@@]21C (stereo partly drawn) was tested, and the Kd was > 4 mM (inactive).
With Cc1scc(C(=O)Nn2cnnc2)c1-c1ccccc1 the Kd was > 4 mM (inactive).
In the case of Cc1ccc(NS(=O)(=O)N2CCOCC2)c(C)c1, the Kd is reported as > 4 mM (inactive).
With O=C(Nc1nccs1)c1ccc(=O)[nH]n1 the Kd was > 4 mM (inactive).
With CNC(=O)C(=O)Nc1c(C)cccc1C the Kd was > 4 mM (inactive).
In the case of CN1CCN(c2ncnc3nc[nH]c23)CC1, the Kd is reported as > 4 mM (inactive).
For COC(=O)[C@@H]1OC(=O)C2OC23[C@@]1(C)CCC1[C@]2(C)C(C[C@@H](O)[C@]13C)C(C)(C)[C@H](OC(C)=O)C[C@@H]2OC(C)=O (stereo partly drawn), the Kd was > 4 mM (inactive).
In the case of CCOC(=O)c1c(C)nc2ccccn12, the Kd is reported as > 4 mM (inactive).
C[C@@H]1OC(O[C@H]2[C@H](OC(=O)[C@]34CCC(C)(C)CC3C3=CCC5[C@@]6(C)CC[C@H](OC7O[C@@H](C)[C@H](O[C@@H]8OC[C@@H](O)[C@H](O)[C@H]8O)[C@@H](O)[C@H]7O)C(C)(C)C6CC[C@@]5(C)[C@]3(C)CC4O)OC[C@H](O)[C@H]2O)[C@H](O)[C@H](O)[C@H]1O[C@@H]1O[C@H](CO)[C@@H](O)[C@H](O)[C@H]1O (stereo partly drawn) was tested, and the Kd was > 4 mM (inactive).
With O=C(CC1SC(=O)NC1=O)Nc1ccccc1 (stereo not drawn) the Kd was > 4 mM (inactive).
For COc1ccc(-c2cc(=O)c3ccccc3o2)cc1OC, the Kd was > 4 mM (inactive).
Cc1ccc(C)n1CCN1CCNCC1 was tested, and the Kd was > 4 mM (inactive).
OCC12COC3c4ccccc4C(OC1)N32 (stereo not drawn) was tested, and the Kd was > 4 mM (inactive).
With COc1cccc(O)c1O the Kd was > 4 mM (inactive).
Cc1nnc(SCc2ccon2)n1-c1ccccc1 was tested, and the Kd was 0.0385 mM.
With CCOC(=O)c1c(C)cc(O)c(C=O)c1O the Kd was > 4 mM (inactive).
For CN(C)c1nc(N2CCOCC2)c2cnn(C)c2n1, the Kd was > 4 mM (inactive).
For O=C(O)c1ccc2occc2c1, the Kd was > 4 mM (inactive).
CC(C)=NNC(=O)C(=O)Nc1ccc(F)cc1 was tested, and the Kd was > 4 mM (inactive).
In the case of Nc1ccc2c(C(F)(F)F)cc(=O)oc2c1, the Kd is reported as > 4 mM (inactive).
